Entries after “also recorded” stand apart in the source; their conditions may differ.
Tested on: oral mucositis in patients receiving chemoradiation for head and neck cancer
Experiment: Phase 2 randomized, double-blind, placebo-controlled trial: onset of oral mucositis (WHO OM Scale) in patients receiving CT/RT
Assay type: in vivo, human
Details: for gastrostomy tube placement and use / unplanned office and emergency room visits: higher dose (0.1 mg/kg); for severe OM, percent of patients: subcutaneous 0.1 mg/kg (HD)
Description: OM is a painful, debilitating, and costly toxicity of different chemoradiotherapy (CT/RT) regimens used to treat head and neck cancer. This trial is a phase 2, randomized, double-blind, dose-ranging, placebo-controlled three-arm study in patients receiving CT/RT for the treatment of head and neck cancer, to assess the safety and tolerability of γ-D-glutamyl-L-tryptophan (SCV-07) as well as its efficacy in delaying the onset of severe OM as assessed by the WHO Oral Mucositis Scale.
The WHO OM Scale is the standard, validated instrument used in clinical trials to measure OM: Grade 0=none; Grade 1=erythema and soreness, no ulcers; Grade 2=ulcers, able to eat a solid diet; Grade 3=ulcers; requires a liquid diet; Grade 4=ulcers, not able to tolerate a solid or liquid diet, requires IV or tube feeding.
59 eligible patients with recently diagnosed, treatment naïve, pathologically-confirmed, non-metastatic squamous cell carcinoma of the oral cavity, oropharynx, hypopharynx or larynx were enrolled and treated with a concomitant regimen of CT/RT consisting of a continuous course of external beam irradiation (IMRT eligible) with a minimum cumulative dose of 50 Gray (Gy) and cisplatin monotherapy administered using standard weekly or tri-weekly dosing regimens (80-100 mg/m^2 administered on Days 0, 21 and 42) or weekly (30-40 mg/m^2). At least two ‘at risk’ intraoral sites were included in the radiation fields and received a cumulative RT dose of at least 50 Gy. Subjects were equally randomized to receive either placebo or one of two doses of γ-D-glutamyl-L-tryptophan (0.02 or 0.1 mg/kg) on each radiation day for up to 7 weeks.
Tables 2-7 summarize the statistics for the Full Analysis Set “FAS” (57 subjects), and the completer population (52 subjects), with respect to delay of onset of severe oral mucositis. Also see FIGS. 1 and 2.
SCV-07 efficacy, dosing and scheduling parameters were assessed in hamster models of acute, fractionated and concomitant chemoradiation (CRT). […] A multicenter, prospective, blinded, randomized trial evaluated SCV-07's ability to alter OM in CRT-treated HNC patients (n=57). Cytokine and gene microarray analyses were performed for samples obtained before and on the last radiation day.

[1] = 0.10 mg/kg, Completer Population
[2] = 0.10 mg/kg, Completer Population, at 30-<35 Gy
[3] = 0.10 mg/kg, Completer Population, at 35-<40 Gy
[4] = 0.10 mg/kg, Completer Population, at 40-<45 Gy
[5] = 0.10 mg/kg, Completer Population, at 45-<50 Gy
[6] = 0.10 mg/kg, Completer Population, at 50-<55 Gy
[7] = 0.10 mg/kg, Completer Population, at 55-<60 Gy
[8] = 0.10 mg/kg, Completer Population, at 65-<70 Gy
[9] = 0.10 mg/kg, Completer Population, at ≧70 Gy
[10] = listed as γ-D-glutamyl-L-tryptophan, 0.1 mg/kg

With `N[C@H](CCC(=O)N[C@@H](Cc1c[nH]c2ccccc12)C(=O)O)C(=O)O` [SCV-07, γ-D-glutamyl-L-tryptophan] the “Cumulative Dose of RT (Gy) at Initial Onset of Ulcerative OM, Median” value [1] was 26 Gy, the “Cumulative Dose of RT (Gy) at Initial Onset of Ulcerative OM, Min” value [1] was 8 Gy and the “Cumulative Dose of Radiation (Gy) Prior to Initial Occurrence of Severe OM (Delay to Onset of Severe OM), K-M Estimate, Mean (SE)” value [1] was 56 (3.8) Gy. For the same compound, the “Cumulative Dose of Radiation (Gy) Prior to Initial Occurrence of Severe OM, K-M Estimate, Median (95% CI)” value [1] was 57 (51, NA) Gy, the “Cumulative Dose of Radiation (Gy) Prior to Initial Occurrence of Ulcerative OM (Delay to Onset of Ulcerative OM), K-M Estimate, Mean (SE)” value [1] was 30 (3.7) Gy and the “Cumulative Dose of Radiation (Gy) Prior to Initial Occurrence of Ulcerative OM, K-M Estimate, 25%-75%” value [1] was 19-46 Gy. For the same compound, the “Cumulative Dose of Radiation (Gy) Prior to Initial Occurrence of Ulcerative OM, K-M Estimate, Median (95% CI)” value [1] was 26 (19, 41) Gy, the “Time (Days) to Initial Occurrence of Sever OM, K-M Estimate, Mean (SE)” value [1] was 38 (2.5) Days and the “Time (Days) to Initial Occurrence of Sever OM, K-M Estimate, Median (95% CI)” value [1] was 43 (33, NA) Days. For the same compound, the “Time (Days) to Initial Occurrence of Ulcerative OM, K-M Estimate, 25%-7%” value [1] was 12 to 32 days, the “Time (Days) to Initial Occurrence of Ulcerative OM, K-M Estimate, Mean (SE)” value [1] was 20 (2.7) Days and the “Time (Days) to Initial Occurrence of Ulcerative OM, K-M Estimate, Median (95% CI)” value [1] was 16 (13, 31) Days. The “delay to onset of ulcerative OM (WHO score >1) as a function of cumulative radiation dose” value (0.10 mg/kg, Completer Population, FIG. 3) was “showed a delay to onset of OM”, the “Cum. Percent of Subjects with Ulcerative OM (WHO > 1)” value (shortened to “Cum. Percent of Subjects … (WHO > 1)”) (0.10 mg/kg, Completer Population, at 5-<10 Gy) was 6% (1%, 37%) and the “Cum. Percent of Subjects … (WHO > 1)” value (0.10 mg/kg, Completer Population, at 10-<15 Gy) was 6% (1%, 37%). For the same compound, the “Cum. Percent of Subjects … (WHO > 1)” value (0.10 mg/kg, Completer Population, at 15-<20 Gy) was 38% (19%, 65%), the “Cum. Percent of Subjects … (WHO > 1)” value (0.10 mg/kg, Completer Population, at 20-<25 Gy) was 50% (29%, 75%) and the “Cum. Percent of Subjects … (WHO > 1)” value (0.10 mg/kg, Completer Population, at 25-<30 Gy) was 63% (40%, 85%). For the same compound, the “Cum. Percent of Subjects with Severe OM (WHO > 2)” value (“Cum. Percent … (WHO > 2)” below) [2] was 13% (3%, 41%), the “Cum. Percent of Subjects … (WHO > 1)” value [2] was 69% (46%, 89%) and the “Cum. Percent … (WHO > 2)” value [3] was 13% (3%, 41%). For the same compound, the “Cum. Percent of Subjects … (WHO > 1)” value [3] was 69% (46%, 89%), the “Cum. Percent … (WHO > 2)” value [4] was 19% (6%, 48%) and the “Cum. Percent of Subjects … (WHO > 1)” value [4] was 75% (53%, 92%). The “Cum. Percent … (WHO > 2)” value [5] was 25% (10%, 54%), the “Cum. Percent of Subjects … (WHO > 1)” value [5] was 75% (53%, 92%) and the “Cum. Percent … (WHO > 2)” value [6] was 38% (19%, 65%). The “Cum. Percent of Subjects … (WHO > 1)” value [6] was 94% (75%, 100%), the “Cum. Percent … (WHO > 2)” value [7] was 56% (34%, 80%) and the “Cum. Percent of Subjects … (WHO > 1)” value [7] was 94% (75%, 100%). The “Cum. Percent of Subjects … (WHO > 1)” value (0.10 mg/kg, Completer Population, at 60-<65 Gy) was 94% (75%, 100%), the “Cum. Percent … (WHO > 2)” value (0.10 mg/kg, Completer Population, at 60->65 Gy) was 64% (41%, 86%) and the “Cum. Percent … (WHO > 2)” value [8] was 73% (48%, 92%). The “Cum. Percent of Subjects … (WHO > 1)” value [8] was 94% (75%, 100%), the “Cum. Percent of Subjects … (WHO > 1)” value (0.10 mg/kg, Completer Population, at <5 Gy) was 0% (0%, 0%) and the “Cum. Percent … (WHO > 2)” value (0.10 mg/kg, Completer Population, at <30 Gy) was 6% (1%, 37%). The “Cum. Percent … (WHO > 2)” value [9] was 73% (48%, 92%), the “Cum. Percent of Subjects … (WHO > 1)” value [9] was 94% (75%, 100%) and the “Cumulative Dose of RT (Gy) at Initial Onset of Severe OM, Max” value (0.10 mg/kg, FAS population) was 72 Gy. The “Cumulative Dose of RT (Gy) at Initial Onset of Severe OM, Mean (SD)” value (0.10 mg/kg, FAS population) was 54 (15.6) Gy, the “Cumulative Dose of RT (Gy) at Initial Onset of Severe OM, Median” value (0.10 mg/kg, FAS population) was 56 Gy and the “Cumulative Dose of RT (Gy) at Initial Onset of Severe OM, Min” value (0.10 mg/kg, FAS population) was 20 Gy. For the same compound, the “Cumulative Dose of Radiation (Gy) Prior to Initial Occurrence of Severe OM (Delay to Onset of Severe OM), K-M Estimate, Mean (SE)” value (0.10 mg/kg, FAS population) was 54 (3.9) Gy, the “Cumulative Dose of Radiation (Gy) Prior to Initial Occurrence of Severe OM, K-M Estimate, Median (95% CI)” value (0.10 mg/kg, FAS population) was 56 (46, 70) Gy and the “Time (Days) to Initial Occurrence of Severe OM, K-M Estimate, Mean (SE)” value (0.10 mg/kg, FAS population) was 37 (2.7) Days. For the same compound, the “Time (Days) to Initial Occurrence of Severe OM, K-M Estimate, Median (95% CI)” value (0.10 mg/kg, FAS population) was 40 (32, NA) Days, the “Cum. Percent … (WHO > 2)” value (0.10 mg/kg, FAS population, at 30-<35 Gy) was 18% (6%, 45%) and the “Cum. Percent … (WHO > 2)” value (0.10 mg/kg, FAS population, at 35-<40 Gy) was 18% (6%, 45%). The “Cum. Percent … (WHO > 2)” value (0.10 mg/kg, FAS population, at 40-<45 Gy) was 24% (10%, 51%), the “Cum. Percent … (WHO > 2)” value (0.10 mg/kg, FAS population, at 45-<50 Gy) was 29% (13%, 57%) and the “Cum. Percent … (WHO > 2)” value (0.10 mg/kg, FAS population, at 50-<55 Gy) was 41% (22%, 67%). For the same compound, the “Cum. Percent … (WHO > 2)” value (0.10 mg/kg, FAS population, at 55-<60 Gy) was 59% (37%, 81%), the “Cum. Percent … (WHO > 2)” value (0.10 mg/kg, FAS population, at 60-<65 Gy) was 66% (44%, 87%) and the “Cum. Percent … (WHO > 2)” value (0.10 mg/kg, FAS population, at 65-<70 Gy) was 74% (51%, 93%). The “Cum. Percent … (WHO > 2)” value (0.10 mg/kg, FAS population, at >30 Gy) was 6% (1%, 35%), the “Cum. Percent … (WHO > 2)” value (0.10 mg/kg, FAS population, at ≧70 Gy) was 74% (51%, 93%) and the “delay to onset of severe OM (WHO score >2) as a function of cumulative radiation dose” value (0.10 mg/kg, Full Analysis Set, FIG. 1) was “showed a delay to onset of OM”. The “delay to onset of severe OM (WHO score >2) as a function of cumulative radiation dose” value (0.10 mg/kg, patients that completed radiation therapy, FIG. 2) was “showed a delay to onset of OM”, the treatment breaks (HD (0.1 mg/kg)) was “fewer” and the “Cox regression analysis of time to UOM initial occurrence, decrease vs. placebo” value (HD SCV-07 cohort vs. placebo) was 52%. For the same compound, the “Number of Days that Patients used the G-Tube” value (SCV-07 high dose) was 44 days, the “Percent of Patients with G-Tube Placement” value (SCV-07 high dose (n = 3/20)) was 18% and the “Number of Days that Patients used the G-Tube” value (SCV-07 low dose) was 57 days. The “Percent of Patients with G-Tube Placement” value (SCV-07 low dose (n = 4/20)) was 20%, the “delay to onset of ulcerative OM (WHO scale, grades 2 to 4)” value (“delay … (WHO scale, grades 2 to 4)” below) (high dose (0.1 mg/kg) vs placebo, 0.1 mg/kg) was “more pronounced clinical benefit; also recorded: delayed” and the “delay … (WHO scale, grades 2 to 4)” value (high dose (0.1 mg/kg) vs placebo, listed as γ-D-glutamyl-L-tryptophan, 0.1 mg/kg) was “showed a trend towards delay in onset”. The “days of gastrostomy tube use” value (high dose vs placebo and low dose) was “fewer days”, the “delay to severe OM (WHO scale, grades 3 and 4), primary endpoint” value (from here on “delay to severe OM”) (higher dose (0.1 mg/kg) vs placebo, 0.1 mg/kg) was “showed a trend towards delay to severe OM; also recorded: delayed severe OM vs. placebo” and the “delay to severe OM” value (higher dose (0.1 mg/kg) vs placebo, listed as γ-D-glutamyl-L-tryptophan, 0.1 mg/kg) was “showed a trend towards delay in onset”. The “gastrostomy tube placement and use” value (0.1 mg/kg) was “fewer G-tubes placed”, the “unplanned office and emergency room visits” value (0.1 mg/kg) was “fewer” and the “gastrostomy tube placement and use” value [10] was “less reliance on gastrostomy tube placement and use”. For the same compound, the “unplanned office and emergency room visits” value [10] was “fewer unplanned office and emergency room visits”, the “delay … (WHO scale, grades 2 to 4)” value (low dose (0.02 mg/kg) vs placebo) was “appeared similar or slightly better than placebo” and the “delay to severe OM” value (low dose (0.02 mg/kg) vs placebo, 0.02 mg/kg) was “appeared to do worse than placebo and not”. The “placement of a gastrostomy feeding tube” value (patients receiving SCV-07 vs placebo) was “less likely to require placement of a gastrostomy feeding tube”, the “severe OM, percent of patients” value (at 50 Gy, placebo 42%) was 29% and the “severe OM, percent of patients” value (at ≦40Gy, placebo 32%) was 18%.
